The values below come from patent US10562898B2, “Substituted benzenesulfonamides as inhibitors of alpha-4 beta-7 integrin activity” (EA PHARMA CO., LTD., priority 2016, dated 2020).

This assay deals with T1, α4β7 integrin (Homo sapiens, UniProt P13612+P26010).
T1 construct: a cell line RPMI-8866, which is known to express α4β7 integrin; endogenous in cells; host or cells: RPMI-8866 (human B cell line)
T1 sequence (P13612 34-1032): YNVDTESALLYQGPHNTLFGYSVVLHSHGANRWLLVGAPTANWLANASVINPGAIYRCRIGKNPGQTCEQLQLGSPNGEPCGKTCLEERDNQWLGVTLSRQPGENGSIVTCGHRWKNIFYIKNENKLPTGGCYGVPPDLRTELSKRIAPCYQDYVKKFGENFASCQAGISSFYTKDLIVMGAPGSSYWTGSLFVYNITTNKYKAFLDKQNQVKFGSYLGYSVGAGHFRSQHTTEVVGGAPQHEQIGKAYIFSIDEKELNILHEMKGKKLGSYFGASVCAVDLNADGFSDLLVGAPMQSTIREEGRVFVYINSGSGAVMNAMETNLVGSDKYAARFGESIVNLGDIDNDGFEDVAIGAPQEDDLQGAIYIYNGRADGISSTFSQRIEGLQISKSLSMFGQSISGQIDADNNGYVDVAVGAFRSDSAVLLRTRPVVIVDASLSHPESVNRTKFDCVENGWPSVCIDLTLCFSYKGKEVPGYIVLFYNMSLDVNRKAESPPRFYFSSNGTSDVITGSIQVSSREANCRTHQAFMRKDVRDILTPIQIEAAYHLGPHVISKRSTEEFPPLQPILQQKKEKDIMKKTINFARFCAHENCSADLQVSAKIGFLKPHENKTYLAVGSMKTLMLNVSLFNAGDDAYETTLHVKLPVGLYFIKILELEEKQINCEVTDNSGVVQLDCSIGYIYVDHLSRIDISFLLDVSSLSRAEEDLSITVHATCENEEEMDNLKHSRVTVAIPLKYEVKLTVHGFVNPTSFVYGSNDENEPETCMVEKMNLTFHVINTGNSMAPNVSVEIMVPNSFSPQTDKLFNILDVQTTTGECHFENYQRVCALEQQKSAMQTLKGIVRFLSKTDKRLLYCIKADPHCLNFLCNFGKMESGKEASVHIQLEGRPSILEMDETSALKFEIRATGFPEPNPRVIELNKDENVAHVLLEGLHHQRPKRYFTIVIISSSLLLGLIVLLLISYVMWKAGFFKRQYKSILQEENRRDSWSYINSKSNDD
T1 sequence (P26010 20-798): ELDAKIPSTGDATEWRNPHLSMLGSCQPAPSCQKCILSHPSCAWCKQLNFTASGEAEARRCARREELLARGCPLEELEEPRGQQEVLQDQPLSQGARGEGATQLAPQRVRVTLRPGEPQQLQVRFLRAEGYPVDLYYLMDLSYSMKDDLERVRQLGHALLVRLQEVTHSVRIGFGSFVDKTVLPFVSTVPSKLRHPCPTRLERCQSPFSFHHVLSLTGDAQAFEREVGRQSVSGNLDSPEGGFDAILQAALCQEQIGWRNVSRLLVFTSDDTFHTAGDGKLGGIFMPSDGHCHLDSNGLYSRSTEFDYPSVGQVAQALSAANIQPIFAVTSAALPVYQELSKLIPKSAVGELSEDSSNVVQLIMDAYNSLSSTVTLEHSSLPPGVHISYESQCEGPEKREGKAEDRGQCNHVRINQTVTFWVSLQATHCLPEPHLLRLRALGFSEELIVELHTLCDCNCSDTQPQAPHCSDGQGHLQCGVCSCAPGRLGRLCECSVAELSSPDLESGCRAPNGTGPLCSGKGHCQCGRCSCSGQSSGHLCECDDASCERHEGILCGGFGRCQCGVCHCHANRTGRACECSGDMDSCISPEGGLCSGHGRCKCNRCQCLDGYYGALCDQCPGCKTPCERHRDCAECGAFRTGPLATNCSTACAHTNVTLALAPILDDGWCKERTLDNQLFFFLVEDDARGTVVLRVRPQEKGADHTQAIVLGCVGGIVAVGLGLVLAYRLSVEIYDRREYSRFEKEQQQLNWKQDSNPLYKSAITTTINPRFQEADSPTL
Kind of assay: MAdCAM-1/α4β7 integrin binding inhibitory activity evaluation test in presence of serum. The format is cell-based. The conditions noted are these: RPMI-8866 cells, recombinant mouse MAdCAM-1/Fc, 50% human serum; read-out: α4β7 Serum Added IC50. The procedure:
(3) MAdCAM-1/α4β7 Integrin Binding Inhibitory Activity Evaluation Test in Presence of Serum (1)
Each test substance was measured in terms of an ability to inhibit the MAdCAM-1 binding of a human B cell line, namely, a cell line RPMI-8866, which is known to express α4β7 integrin.
A solution of recombinant mouse MAdCAM-1/Fc (R&D Systems, Inc.) (1 μg/mL) diluted with a buffer A (carbonate buffer, pH 9.6) was added in an amount of 50 μL/well to a 96-well microtiter plate, followed by incubation at 4° C. overnight. After the plate was washed with PBS once, 150 μL/well of Block Ace (Snow Brand Milk Products Co., Ltd.) was added, followed by incubation at room temperature for 2 hours. After removal, the plate was washed with PBS once.
Then, 100 μL of the RPMI-8866 cells (2×10^6 cells/mL) and 100 of the test substance at each of various concentrations diluted with a binding buffer (DMEM containing 40 mM HEPES, 0.2% BSA, and 4 mM MnCl2) were added to the plate coated with the MAdCAM-1/Fc (5×10^5 cells/well) such that 50% human serum was contained at the final concentration. Then, incubation was allowed to proceed at 30° C. for 15 to 60 minutes. After the cells were bound to the wells, the plate was washed with PBS to remove unbound cells. A buffer C (PBS containing 1.5% Triton X-100) was added in an amount 50 μL/well to the plate to lyse the bound RPMI-8866 cells. After 30 μL of a substrate buffer (Promega, CytoTox 96 Non-Radioactive Cytotoxicity Assay) was added to 30 μL of the cell lysate, a reaction was allowed to proceed at room temperature in the dark for 30 minutes. After 30 μL of a stop solution (Promega, CytoTox 96 Non-Radioactive Cytotoxicity Assay) was added to each, and then an absorbance at 490 nm was measured using a plate reader. The absorbance obtained here represents a detection result of an activity of lactate dehydrogenase (LDH) eluted in the supernatant of each well, that is, the absorbance is proportional to the number of RPMI-8866 cells bound to the MAdCAM-1 and thus remaining on the plate. The test was performed in duplicate. Provided that the absorbance of the well containing no test substance was 100%, a cell binding rate with the test substance at each of the various concentrations was figured out, and a concentration IC50 which brought about 50% binding inhibition was calculated.
With `Cc1c(C)n(C)c(=O)n(-c2ccc(C[C@H](NC(=O)c3cc(F)c(NS(=O)(=O)c4ccc(NC(=O)C(C)(C)C)nc4)cc3F)C(=O)O)cc2)c1=O` [Compound A25], the IC50 was 48 nM.
For the molecule `Cn1c2c(c(=O)n(-c3ccc(C[C@H](NC(=O)c4cc(F)c(NS(=O)(=O)c5ccc(NC(=O)C(C)(C)C)cc5)cc4F)C(=O)O)cn3)c1=O)COCC2` [Compound A44], the IC50 worked out at 2.6 nM.
The same measure for `Cn1c2c(c(=O)n(-c3ccc(C[C@H](NC(=O)c4cc(F)c(NS(=O)(=O)c5ccc(NC(=O)C(C)(C)C)cc5)cc4F)C(=O)O)cc3)c1=O)CCOC2` [Compound A27]: 2.4 nM; for `Cc1cn(C)c(=O)n(-c2ccc(C[C@H](NC(=O)c3cc(F)c(NS(=O)(=O)c4ccc(NC(=O)C(C)(C)C(F)(F)F)cc4)cc3F)C(=O)O)cn2)c1=O` [Compound A58]: 12 nM.
For the molecule `Cn1cc(C(F)(F)F)c(=O)n(-c2ccc(C[C@H](NC(=O)c3cc(F)c(NS(=O)(=O)c4ccc(NC(=O)C(C)(C)C)cc4)cc3F)C(=O)O)cn2)c1=O` [Compound A67], the IC50 was 14 nM.
As for `Cn1c2c(c(=O)n(-c3ccc(C[C@H](NC(=O)c4cc(F)c(NS(=O)(=O)c5ccc(NC(=O)C(C)(C)C)cc5)cc4F)C(=O)O)cn3)c1=O)CCCC2` [Compound A52], the IC50 was 4.9 nM.
Take `Cn1ccc(=O)n(-c2ccc(C[C@H](NC(=O)c3cc(F)c(NS(=O)(=O)c4ccc(NC(=O)C5(C#N)CC5)cc4)cc3F)C(=O)O)cn2)c1=O` [Compound A59]: the IC50 was found to be 93 nM.
As to `Cn1ccc(=O)n(-c2ccc(C[C@H](NC(=O)c3cc(F)c(NS(=O)(=O)c4ccc(NC(=O)C(C)(C)C(F)(F)F)cc4)cc3F)C(=O)O)cn2)c1=O` [Compound A57], the IC50 came to 14 nM.
Regarding `Cc1c(C)n(C)c(=O)n(-c2ccc(C[C@H](NC(=O)c3cc(F)c(NS(=O)(=O)c4ccc(NC(=O)C(C)(C)C)cn4)cc3F)C(=O)O)cn2)c1=O` [Compound A32], the IC50 stood at 3 nM.
Regarding `Cn1c(=O)n(-c2ccc(C[C@H](NC(=O)c3cc(F)c(NS(=O)(=O)c4ccc(NC(=O)NC(C)(C)C)cc4)cc3F)C(=O)O)cc2)c(=O)c2ccncc21` [Compound A5], the IC50 came out at 70 nM.
As to `Cn1c(=O)n(-c2ccc(C[C@H](NC(=O)c3cc(F)c(NS(=O)(=O)c4ccc(NC(=O)C(C)(C)C)cc4)cc3F)C(=O)O)cc2)c(=O)c2ccncc21` [Compound A1, (2S)-2-[[4-[[4-(2,2-dimethylpropanoylamino)phenyl]sulfonylamino]-2,5-difluoro-benzoyl]amino]-3-[4-(1-methyl-2,4-dioxo-pyrido[3,4-d]pyrimidin-3-yl)phenyl]propanoic acid], the IC50 was found to be 10 nM.
Turning to `Cn1c2c(c(=O)n(-c3ccc(C[C@H](NC(=O)c4cc(F)c(NS(=O)(=O)c5ccc(NC(=O)C(C)(C)C)cc5)cc4F)C(=O)O)nc3)c1=O)CCCC2` [Compound A47], the IC50 amounted to 15 nM.
Regarding `Cc1cn(C)c(=O)n(-c2ccc(C[C@H](NC(=O)c3cc(F)c(NS(=O)(=O)c4ccc(NC(=O)C(C)(C)C)cc4)cc3F)C(=O)O)cn2)c1=O` [Compound A54], the IC50 came to 8.4 nM.
In the case of `Cc1cn(C)c(=O)n(-c2ccc(C[C@H](NC(=O)c3cc(F)c(NS(=O)(=O)c4ccc(NC(=O)C(C)(C)C)s4)cc3F)C(=O)O)cn2)c1=O` [Compound A73], the IC50 was 37 nM.
The same measure for `Cc1cn(C)c(=O)n(-c2ccc(C[C@H](NC(=O)c3cc(F)c(NS(=O)(=O)c4ccc(NC(=O)C(C)(C)C)cc4)cc3F)C(=O)O)nc2)c1=O` [Compound A69]: 16 nM; for `Cn1c(=O)n(-c2ccc(C[C@H](NC(=O)c3cc(F)c(NS(=O)(=O)c4ccc(NC(=O)C(C)(C)C)cc4)cc3F)C(=O)O)cn2)c(=O)c2ccncc21` [Compound A26]: 6.4 nM.
Consider `Cn1c(=O)n(-c2ccc(C[C@H](NC(=O)c3cc(F)c(NS(=O)(=O)c4ccc(NC(=O)C5(C(F)(F)F)CC5)cc4)cc3F)C(=O)O)cc2)c(=O)c2ccncc21` [Compound A24], for which the IC50 is 15 nM.
On to `Cc1c(C)n(C)c(=O)n(-c2ccc(C[C@H](NC(=O)c3cc(F)c(NS(=O)(=O)c4ccc(NC(=O)C(C)(C)C)s4)cc3F)C(=O)O)cc2)c1=O` [Compound A10], for which the IC50 is 10 nM.
